87 molecules from a melting point compilation (Tetko et al.; mined from patent text by program, amines drawn as free bases though some values may be those of a salt) can be followed below.

As usually defined, the melting point is the temperature, or range, at which the solid turns liquid. `CC(=O)N1CCN(c2ccc(-c3cnc4[nH]cc(C(=O)N[C@@H](C(=O)N5CC(C#N)C5)C5CC5)c4n3)cc2)CC1` gave a melting point of 185 to 188 °C.

`Cc1ccc2nc(-c3ccccc3F)oc2n1` returned a melting point of 136 to 137 °C.

Molecule `COc1cc(Nc2c(C#N)cnc3cc(-c4ccc(CN5CCOCC5)nc4)ccc23)c(Cl)cc1Cl` had a melting point of 195 to 197 °C. As for `O=C(c1cnc2ccccc2c1)C1CCN(C(=O)c2ccccc2)CC1`, the melting point is 170 °C. Regarding `O=S1(=O)CCN2C=CC=C(c3ccc(Oc4ccc(Cl)cc4)cc3)C2=N1`, the melting point was 232 to 234 °C.

The molecule `CCCc1nc(C)cn1-c1nc(OC)ccc1N` returned a melting point of 124 to 128 °C. As for `COC(=O)c1ccccc1COc1ccccc1Br`, the melting point was in the range of 73 to 74 °C. The molecule `Nc1nc(NCCN2CCOCC2)nc(-c2cc(Cl)ccc2Cl)n1` had a melting point of 159 to 161 °C.

`CC(C)(C)OC(=O)N[C@@H](Cc1ccccc1)C(=O)NCCC(=O)OCc1ccccc1` gave a melting point of 93 to 96 °C. Consider `COC(=O)c1nc(-c2ccc(Cl)cc2F)cc(NC(C)=O)c1O`, for which the melting point lay in the range of 201 to 206 °C.

Consider `CCCC=Cc1c(C(C)C)nc(C(C)C)c(CO)c1-c1ccc(-c2ccccc2)cc1`, for which the melting point lay in the range of 50 to 52 °C. For the molecule `O=C(Nc1ccc(-c2ncon2)cc1)Oc1ccccc1`, the melting point is 157 to 158 °C.

Turning to `COc1cccc(OC(=O)NC2C(=O)N(CCC(C)C)c3cc(Cl)ccc3N(c3ccccc3)C2=O)c1` (configuration not stated), the melting point was 129 to 130 °C. Molecule `NCCCC(=O)N1CCC(c2[nH]nc3c2C(=O)c2c(NC(=O)NN4CCOCC4)cccc2-3)CC1` registered a melting point of 172 to 174 °C. Molecule `CCCCCCCCCCCCCc1nc(NC(=O)Nc2c(C(C)C)cccc2C(C)C)no1` came in with a melting point of 99 to 101 °C. The molecule `COc1ccc(C(=O)c2ccc3nc(Cl)nc(-c4cccc(Cl)c4)c3c2)cc1` showed a melting point of 164 °C.

`Clc1cccc(Nc2nccc(Cl)n2)c1` had a melting point of 112 to 114 °C. `COC(=O)c1cc2c3ccccc3n(C(C)=O)c2s1` showed a melting point of 179 to 181 °C.

On to `C=Cc1cc(C2=NCCO2)ccc1OCCCCCc1cc(C)no1`, for which the melting point is 116 to 117 °C. `CC(=O)c1c(O)cccc1OCC(F)COc1cccc(O)c1C(C)=O` registered a melting point of 162 to 165 °C. Under `Cc1oc(-c2ccco2)nc1COc1ccc(Cn2cc(CCC(=O)O)c(OCc3ccccc3)n2)cc1` stands 104 to 105 °C; under `CCn1c(=O)c(=O)[nH]c2cc(-n3cccc3)c([N+](=O)[O-])cc21`, 248 to 250 °C; under `O=C(Oc1ccccc1)C(=C1NCCCS1)[N+](=O)[O-]`, 100 to 102 °C.

Molecule `CC(C)(C)OC(=O)NCC1Cc2ccc(OCc3ccccc3)cc2C1` (configuration not stated) yielded a melting point of 95 to 98 °C.

Regarding `O=C(Nc1ccc(F)c([N+](=O)[O-])c1)C(F)(F)F`, the melting point lay in the range of 70 to 75 °C.

Take `CCOC(=O)c1ncn2c1C(C)(C)Nc1ccccc1-2`: the melting point was 145 to 149 °C. As for `COC(=O)CNC(=O)c1ccc(C(=O)NS(=O)(=O)c2ccc(CCNC(=O)C(C)C)cc2)cn1`, the melting point was in the range of 197 to 199 °C. `COc1cccc(C23CCCC=C2C(=O)N(CC2CCC2)C(=O)C3)c1` (configuration not stated): the melting point fell in the range of 89 to 93 °C. Consider `CC(C)(C)OC(=O)NCC(N)c1c[nH]c2ccc(Br)cc12` (configuration not stated), for which the melting point turned out to be 151 °C. For the molecule `O=C(O)CCc1cccc(CCc2nc(-c3ccccc3)c(-c3ccccc3)o2)c1`, the melting point is 119 to 120 °C. In turn, `O=Cc1cc(Br)ccc1OCCc1ccccc1` had a melting point of 79 to 80 °C. Molecule `Cc1cccc(C(=O)NO)c1N(C)S(=O)(=O)c1ccc(OCCCNC(=O)c2cc3ccccc3[nH]2)cc1` came in with a melting point of 144 to 146 °C. The molecule `N#CCOc1ccc2cc(-c3cnc(Cc4ccccc4)o3)ccc2c1` had a melting point of 184 to 187 °C. In turn, `N#Cc1ccc(N2CCc3nc4cc(Cl)ccc4c(Cl)c3C2)nc1` had a melting point of 171 to 173 °C. In turn, `CCn1cc(C(=O)O)c(=O)c2cc(F)c(C(=O)CBr)c(F)c21` had a melting point of 213 to 215 °C. Turning to `O=C(O)Cn1c(=O)n(S(=O)(=O)c2ccccc2)c(=O)c2ccc(Cl)cc21`, the melting point was in the range of 212 to 214 °C. `CN(Cc1ccccc1)c1nc(N)nc(-c2cc(Cl)ccc2Cl)n1` came in with a melting point of 163 to 164 °C. `O=C1NCCN1C1CCN(CCC2CS(=O)c3ccccc3O2)CC1` (configuration not stated) showed a melting point of 145 °C.

As to `Nc1ccc(C(=O)c2cccc3c2NCC3)cc1`, the melting point is 133 to 135 °C. Turning to `O=C(Nc1cccc(C(=NO)c2ccccc2)c1)c1ccn2c1CSC2c1cccnc1` (single isomer, unassigned; (+)), the melting point is 130 °C. Consider `COc1cc2c(=O)n(CCCc3ccccc3)c3cc(OC)c(OC)cc3c2cc1OC`, for which the melting point was 209 to 211 °C. Turning to `Cc1nc(-c2ccccc2)ncc1C(=O)c1ccccc1`, the melting point is 68 to 72 °C.

In the case of `O=C(c1ccc([N+](=O)[O-])cc1)N1CCC(OCc2ccc(F)cc2)CC1`, the melting point turned out to be 120 °C. Under `COc1cc(CCl)ccc1OCc1nc(-c2cccc([N+](=O)[O-])c2)oc1C` stands 166 to 168 °C; under `c1ccc2cc(OCCCNC3CCCCC3)ccc2c1`, 98 °C; under `CN(C)C=CC(=O)C(c1ccccc1)c1ccccc1`, 93 to 94 °C. `CNc1ccc(CCc2ccc(OCc3ccccc3)c(OCc3ccccc3)c2)cc1` displayed a melting point of 61 to 65 °C. `CCOP1(=O)OCc2ccccc21` (configuration not stated): the melting point was determined as 60 °C. As for `COc1cc(Cl)c([N+](=O)[O-])cc1C(=O)O`, the melting point fell in the range of 184 to 185 °C. Under `O=[N+]([O-])c1ccccc1-c1ccc2c(c1)S(=O)(=O)NC(C1CCCCC1)N2` (configuration not stated) stands 204 to 207 °C; under `CCC(CC)(CO)CCS(N)(=O)=O`, 79 to 80 °C; under `Cc1ccc(N(C(=O)CCl)c2c(C)cccc2Cl)cc1`, 113 to 114 °C. `CCCCCCCCC1C=CC(/C=C/c2ccc(C(=O)O)o2)=C2N=C3C(=C21)CC(C)(C)CC3(C)C` (configuration not stated) came in with a melting point of 156 to 158 °C.

Molecule `CCOC(=O)C(C)(C(=O)OCC)c1ccc(N)c(C(F)(F)F)c1` had a melting point of 73 to 75 °C. Consider `COc1ccc(CCCC2CCNCC2)cc1`, for which the melting point fell in the range of 65 to 70 °C.

On to `COC(=O)c1ccc(OCCCNc2ccc(NCc3ccc4c(c3)OCCO4)cc2)cc1`, for which the melting point lay within 185 to 188 °C. `CCOC(=O)COc1ccc([N+](=O)[O-])cc1C1C(C(=O)OCC)=C(C)NC(C)=C1C(=O)OCC` displayed a melting point of 175 °C.

For `O=C(NCCO)c1cccc(-c2cccn3nc(Nc4cccc(C(F)(F)F)c4)nc23)c1`, the melting point fell in the range of 215 to 216 °C. In turn, `NS(=O)(=O)c1ccc2c(c1)C(=O)C1(CCOC1=O)O2` (configuration not stated) displayed a melting point of 202 to 215 °C. With `CC1(C)CCC2(Cc3ccc(Cl)cc3)OC2C1=O` (configuration not stated) the figure was 69 to 70 °C.

`O=C(O)c1c(Cc2cc3c(cc2Cl)OCO3)c(-c2ccccn2)nn1CC1CCCCC1` yielded a melting point of 238 °C. On to `COC(=O)C=C1C=C(C(C)(C)C)C(=O)C(C(C)(C)C)=C1`, for which the melting point was 87 to 89 °C. The molecule `Nc1nc2ccccc2c2c1nc(-c1ccccc1)n2OCc1ccccc1` gave a melting point of 177 to 179 °C.

On to `O=C(Oc1ccccc1)c1ccccc1S`, for which the melting point stood at 135 °C. As to `CN1C2CCC1CC(NC(=O)c1cccc3oc(-c4ccccc4)nc13)C2` (configuration not stated), the melting point is 149 to 151 °C. In the case of `O=C(c1ccccc1F)c1cc(Cl)ccc1CCCN1C(=O)c2ccccc2C1=O`, the melting point lay within 98 to 99 °C.

In the case of `COc1ccc(S(=O)(=O)N2CCC[C@H]2C(=O)NO)cc1`, the melting point was in the range of 164 to 166 °C. For `Cc1ccc(C(=O)NC(C)C)c(Nc2ccc3cn[nH]c3c2)n1`, the melting point was in the range of 212 to 214 °C. `COc1ccccc1/C=C/C(=O)Nc1cccc(NC(=N)c2ccccc2)c1` displayed a melting point of 219 to 221 °C. Take `Clc1ccc([C@@]2(Cn3ccnc3)OC[C@H](COc3ccc4c(c3)CCNC4)O2)c(Cl)c1` (racemic): the melting point was in the range of 143 to 145 °C.

Turning to `CNC(=S)N1CC(Oc2cccc(C(F)(F)F)c2)C1`, the melting point fell in the range of 79 to 86 °C. On to `CCOC(C(N)=O)N(c1ccc(Cl)cc1Cc1c(F)cccc1F)S(=O)(=O)c1ccc(OC)c(OC)c1` (configuration not stated), for which the melting point was 154 °C. `COC(=O)CCCCC(=O)Nc1c(I)c(C(=O)O)c(I)c(N(C)C(C)=O)c1I` registered a melting point of 229 to 232 °C.

With `CC(N)c1ccc2c(c1)C(c1ccccc1F)=NC(C)(C)C(=O)N2C` (configuration not stated), the melting point lay within 50 to 51 °C. As to `CN(O)CCCCc1ccc2c(c1)C(=O)c1sccc1CO2`, the melting point was 107 to 108 °C. In turn, `CN1C(=O)CC[C@]2(C)c3ccc(-c4ccc(NC(=O)C(C)(C)C)nc4)cc3CC[C@@H]12` gave a melting point of 248 to 250 °C.

As for `CC(c1oc2ccccc2c(=O)c1-c1cccc(F)c1)n1nc(-c2ccc(OCc3ccccc3)cc2)c2c(N)ncnc21` (configuration not stated), the melting point was 176 to 178 °C. For the molecule `Cc1nn([N+](=O)[O-])cc1-c1ncc([N+](=O)[O-])n1C`, the melting point was found to be 148 °C. The molecule `NC1=NC2(O)c3cc([N+](=O)[O-])ccc3CC2S1` (configuration not stated) had a melting point of more than 250 °C. With `CCc1ccccc1OS(=O)(=O)c1ccc(N2CCN(C)C2=O)cc1` the figure was 126 to 128 °C; with `O=S(=O)(NCc1ccnc2ccccc12)c1ccc(Cc2ccccc2)cc1`, 106 to 107 °C; with `CCCC(=O)NCCC1CCc2ccc3c(c21)OCO3` (configuration not stated), 71 to 73 °C. Take `COc1cc(C(O)CS(C)(=O)=O)cc(OC)c1N(C)C(C)=O` (configuration not stated): the melting point is 175 to 177 °C. Under `COc1ccc2nccc(NC(=O)C3CCN(CCc4cnc5ccccc5n4)CC3)c2n1` stands 170 °C. With `Nc1ncc(CCO)s1`, the melting point is 125 to 127 °C. Regarding `CCN(CC)c1cc2c(cc1C)Nc1c(cc(NC(=O)c3ccc(OC)cc3)c3ncn(-c4ccc(OC)cc4)c13)O2`, the melting point lay in the range of 189 to 192 °C.

For the molecule `CCN(CC)CCC(=O)OCC1CC(c2ccc(-c3ccc(N4CC(Cn5ccnn5)OC4=O)cc3F)cn2)=NO1` (configuration not stated), the melting point came to 167 °C.
